In patent US9409952B2, “Peptide-compound cyclization method” (Chugai Seiyaku Kabushiki Kaisha, priority 2011, dated 2016):
Where two headings read alike, the source gives them in different places. Starred links: 1 amine or outer side, 2 acyl side, 3 side chain; linkers in the order of their positions; H or OH if unused. Positions of bridges follow the written chain, without caps; N, C: chain ends. Non-standard residues stand in square brackets, D forms with d. Residues, ends and D or L forms follow the SMILES beside them. *: point of attachment. Phe(3-(CH2)4CO) = O=C([C@H](Cc1cccc(CCCCC(=O)[*:3])c1)N[*:1])[*:2]; NMeF = CN[C@@H](Cc1ccccc1)C(=O)O; NMeGABA = CN(CCCC(=O)[*:2])[*:1]; NMeI = CC[C@H](C)[C@H](NC)C(=O)O; NMeβAla = CN(CCC(=O)[*:2])[*:1]; NMeL = CN[C@@H](CC(C)C)C(=O)O; NMeV = CN[C@H](C(=O)O)C(C)C; NMeA = CN[C@@H](C)C(=O)O; Piperidide = C1CCN(*)CC1; dNMeA = CN[C@H](C)C(=O)O; β3hA = C[C@H](N)CC(=O)O; Sar = CNCC(=O)O; tBu = CC(C)(C)*

Experiments:
[1] = PAMPA (parallel artificial membrane permeability assay); format: in vitro ADME; details: PAMPA
Outline: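 Artificial membrane was 10% (w/v) egg lecithin plus 0.5% (w/v) cholesterol in dodecane on a PVDF filter. A 10 mM DMSO stock was added at 0.5% (v/v) to donor buffer (50 mM MOPSO, pH 6.5, 5.0% glycocholic acid). After 18 h at 37 °C, LC/MS or LC/UV gave donor and acceptor levels for Pe.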

[2] = Metabolic stability in human hepatic microsome; format: in vitro ADME; details: microsomes
[3] = membrane permeation rate (Pe), 50 mM MOPSO buffer pH 6.5 with 5.0% glycocholic acid, 37° C., 18 hours, read-out: iPAMPA Pe
[4] = pH 7.4, human hepatic microsome, NADPH(+), read-out: CL NADPH(+)

Row | Structure (SMILES) | Papp at 18 hours, 50 µM ([1]; pH 6.5) [×10⁻⁶ cm/s] | microsomal CLint at 1 uM ([2]; human, pH 7.4, CL NADPH(+)) [µL/min/mg] | Papp at 18 hours, 50 µM [1, 3] [×10⁻⁶ cm/s] | microsomal CLint at 1 uM [2, 4] [µL/min/mg]
1 | CC[C@H](C)[C@H]1C(=O)N[C@@H](C)C(=O)N(C)[C@@H](CC(C)C)C(=O)N(C)[C@@H](Cc2ccccc2)C(=O)N[C@@H]([C@@H](C)O)C(=O)N(C)[C@@H](C)C(=O)N(C)[C@@H](CC(C)C)C(=O)N(C)[C@@H](Cc2ccccc2)C(=O)N[C@H](C(=O)N(C)[C@@H](Cc2ccccc2)C(=O)N[C@@H](C)C(=O)N2CCCCC2)CC(=O)N(C)CC(=O)N(C)[C@@H](CC(C)C)C(=O)N1C [DP-284] ([Sar][NMeL][NMeI]A[NMeL][NMeF]T[NMeA][NMeL][NMeF]D[NMeF]A-Piperidide; lactam N-11) | 0.21 | 11 |  | 
2 | CC(C)C[C@H]1C(=O)N[C@@H](C)C(=O)N(C)[C@@H](C)C(=O)N[C@H](C(=O)N(C)[C@@H](Cc2ccccc2)C(=O)N[C@@H](C)C(=O)N2CCCCC2)CC(=O)N(C)[C@H](C)C(=O)N(C)[C@@H](C(C)C)C(=O)N(C)[C@@H](C)C(=O)N[C@@H](Cc2ccccc2)C(=O)N[C@@H]([C@@H](C)O)C(=O)N(C)[C@@H](C)C(=O)N1C [DP-354] ([dNMeA][NMeV][NMeA]FT[NMeA][NMeL]A[NMeA]D[NMeF]A-Piperidide; lactam N-10) |  |  | 3.3 | 8
3 | CC(C)C[C@H]1C(=O)N[C@@H](C(C)C)C(=O)N(C)[C@@H](CC(C)C)C(=O)N(C)[C@@H](CC(C)C)C(=O)N[C@H](C(=O)N(C)[C@@H](Cc2ccccc2)C(=O)N[C@@H](C)C(=O)N2CCCCC2)CC(=O)N[C@H](C(C)C)C(=O)N(C)[C@@H](CC(C)C)C(=O)N(C)[C@@H](Cc2ccccc2)C(=O)N(C)[C@@H](CC(C)C)C(=O)N[C@@H](Cc2c[nH]cn2)C(=O)N1C [DP-586] ([dV][NMeL][NMeF][NMeL]H[NMeL]V[NMeL][NMeL]D[NMeF]A-Piperidide; lactam N-10) |  |  | 0.44 | 15
4 | CC(C)C[C@H]1C(=O)N[C@@H](Cc2ccccc2)C(=O)N(C)[C@@H](C(C)C)C(=O)N(C)[C@@H](C)C(=O)N(C)[C@@H](Cc2ccccc2)C(=O)N[C@@H]([C@@H](C)O)C(=O)NCC(=O)N[C@H](C(=O)N(C)[C@@H](Cc2ccccc2)C(=O)N[C@@H](C)C(=O)N2CCCCC2)CC(=O)N(C)[C@@H](C)C(=O)N[C@@H](C)C(=O)N1C [DP-375] ([NMeA]A[NMeL]F[NMeV][NMeA][NMeF]TGD[NMeF]A-Piperidide; lactam N-10) |  |  | 19 | 39
5 | CC[C@H](C)[C@H]1C(=O)N(C)[C@@H](CC(C)C)C(=O)N[C@H](C(=O)N2CCCCC2)CC(=O)N[C@H](C)C(=O)N[C@@H]([C@@H](C)O)C(=O)N(C)[C@@H](C)C(=O)N(C)[C@@H](Cc2ccccc2)C(=O)N2CCC[C@H]2C(=O)N[C@@H](C)C(=O)N(C)[C@@H](C(C)C)C(=O)N[C@@H](Cc2ccccc2)C(=O)N1C [DP-65] ([dA]T[NMeA][NMeF]PA[NMeV]F[NMeI][NMeL]D-Piperidide; lactam N-11) | 14 | 97 |  | 
6 | CC[C@H](C)[C@H]1C(=O)N[C@H](C(=O)N2CCCCC2)CC(=O)N(C)[C@@H](C)C(=O)N(C)[C@@H](CC(C)C)C(=O)N(C)[C@@H](Cc2ccccc2)C(=O)N[C@@H]([C@@H](C)O)C(=O)N(C)CC(=O)N(C)[C@@H](CC(C)C)C(=O)N[C@@H](COC(C)(C)C)C(=O)N1C [DP-152] ([NMeA][NMeL][NMeF]T[Sar][NMeL]S(tBu)[NMeI]D-Piperidide; lactam N-9) |  |  | 61 | 93
7 | CC[C@H](C)[C@H]1C(=O)N[C@H](C(=O)N2CCCCC2)Cc2cccc(c2)CCCCC(=O)N[C@@H](CC(C)C)C(=O)N2CCC[C@H]2C(=O)N(C)[C@@H](C(C)C)C(=O)N[C@@H](Cc2ccccc2)C(=O)N(C)[C@@H](Cc2ccccc2)C(=O)N(C)[C@@H](CC(C)C)C(=O)N[C@@H](C)C(=O)N1C [DP-872] (LP[NMeV]F[NMeF][NMeL]A[NMeI][Phe(3-(CH2)4CO)]-Piperidide; lactam N-9) |  |  | 3.1 | 397
8 | CC[C@H](C)[C@H](NC(=O)[C@@H]1CC(=O)N[C@@H](C)C(=O)N[C@@H]([C@@H](C)CC)C(=O)N(C)[C@@H](C)C(=O)N(C)[C@@H](Cc2ccccc2)C(=O)N[C@@H]([C@@H](C)O)C(=O)N(C)[C@@H](Cc2ccccc2)C(=O)N[C@@H](CC(C)C)C(=O)N2CCC[C@H]2C(=O)N1)C(=O)N1CCCCC1 [DP-669] (AI[NMeA][NMeF]T[NMeF]LPDI-Piperidide; lactam N-9) | 29 | 54 |  | 
9 | CC(C)C[C@H]1C(=O)N(C)[C@@H](C)C(=O)N[C@@H]([C@@H](C)O)C(=O)N(C)[C@@H](C)C(=O)N(C)[C@@H](CC(C)C)C(=O)N(C)[C@@H](Cc2ccccc2)C(=O)N[C@H](C(=O)N2CCCCC2)CC(=O)N(C)[C@H](C)C(=O)N(C)[C@@H](C)C(=O)N[C@@H](C)C(=O)N(C)[C@@H](C)C(=O)N1C [DP-476] ([dNMeA][NMeA]A[NMeA][NMeL][NMeA]T[NMeA][NMeL][NMeF]D-Piperidide; lactam N-11) |  |  | 2.8 | 10
10 | CC[C@H](C)[C@@H]1NC(=O)[C@H](C)N(C)C(=O)[C@H]([C@@H](C)O)NC(=O)[C@H](C(C)C)N(C)C(=O)[C@H](CC(C)C)NC(=O)[C@H](CC(C)C)N(C)C(=O)[C@@H](C)N(C)C(=O)C[C@H](C)NC(=O)[C@H](Cc2ccccc2)NC(=O)[C@H](C)NC(=O)[C@H](Cc2ccccc2)N(C)C1=O [DP-769] (cyclo(AF[β3hA][dNMeA][NMeL]L[NMeV]T[NMeA]I[NMeF])) | 53 | 78 |  | 
11 | CC[C@H](C)[C@H]1C(=O)N[C@@H](Cc2ccccc2)C(=O)N(C)[C@@H](Cc2ccccc2)C(=O)N[C@@H]([C@@H](C)O)C(=O)N2CCC[C@H]2C(=O)N[C@@H](CC(C)C)C(=O)N[C@H](C(=O)N2CCCCC2)Cc2cccc(c2)CCCCC(=O)N[C@@H](CC(C)C)C(=O)N(C)[C@@H](CC(C)C)C(=O)N[C@@H](C)C(=O)N1C [DP-897] (L[NMeL]A[NMeI]F[NMeF]TPL[Phe(3-(CH2)4CO)]-Piperidide; lactam N-10) |  |  | 2.4 | 56
12 | CC[C@H](C)[C@@H]1NC(=O)[C@H](Cc2ccccc2)N(C)C(=O)[C@H](Cc2ccccc2)NC(=O)[C@H]([C@@H](C)O)NC(=O)[C@H](C(C)C)N(C)C(=O)[C@H](CC(C)C)NC(=O)[C@H](CC(C)C)N(C)C(=O)CCCN(C)C(=O)C[C@@H](C(=O)N2CCCCC2)NC(=O)[C@H](C)NC(=O)[C@H](C)N(C)C1=O [DP-274] ([NMeGABA][NMeL]L[NMeV]TF[NMeF]I[NMeA]AD-Piperidide; lactam N-11) | 25 | 183 |  | 
13 | CC(C)C[C@H]1C(=O)N[C@H](C(=O)N(C)[C@@H](Cc2ccccc2)C(=O)N[C@@H](C)C(=O)N2CCCCC2)CC(=O)N(C)CCC(=O)N(C)[C@@H](C)C(=O)N[C@@H](C(C)C)C(=O)N(C)[C@@H](C(C)C)C(=O)N(C)[C@@H](Cc2ccccc2)C(=O)N(C)CC(=O)N[C@@H]([C@@H](C)O)C(=O)N(C)[C@@H](C)C(=O)N1C [DP-449] ([NMeβAla][NMeA]V[NMeV][NMeF][Sar]T[NMeA][NMeL]D[NMeF]A-Piperidide; lactam N-10) |  |  | 6 | 6
14 | CC[C@H](C)[C@H](NC(=O)[C@H](CC(C)C)N(C)C(=O)[C@H](CC(C)C)NC(=O)[C@H](C)N(C)C(=O)[C@@H]1CC(=O)N[C@@H](C)C(=O)N(C)[C@@H](CC(C)C)C(=O)N[C@@H](C(C)C)C(=O)N[C@@H](C)C(=O)N(C)[C@@H](CC(C)C)C(=O)N(C)[C@@H](CC(C)C)C(=O)N(C)[C@@H](Cc2ccccc2)C(=O)N[C@@H]([C@@H](C)O)C(=O)N(C)[C@@H](Cc2ccccc2)C(=O)N1)C(=O)N1CCCCC1 [DP-945] (A[NMeL]VA[NMeL][NMeL][NMeF]T[NMeF]D[NMeA]L[NMeL]I-Piperidide; lactam N-10) |  |  | 0.1 | 28
15 | CC(C)C[C@@H]1NC(=O)CCCN(C)C(=O)C[C@@H](C(=O)N2CCCCC2)NC(=O)[C@H](Cc2ccccc2)N(C)C(=O)[C@H]([C@@H](C)O)NC(=O)[C@H](CC(C)C)N(C)C(=O)[C@H](COC(C)(C)C)NC1=O [DP-716] ([NMeGABA]LS(tBu)[NMeL]T[NMeF]D-Piperidide; lactam N-7) |  |  | 21 | 133
16 | CC(C)C[C@H]1C(=O)N[C@@H](C(C)C)C(=O)N[C@H](C(=O)N(C)[C@@H](Cc2ccccc2)C(=O)N[C@@H](C)C(=O)N2CCCCC2)CC(=O)N[C@@H](C)C(=O)N(C)[C@@H](Cc2ccccc2)C(=O)N(C)[C@@H](C)C(=O)N(C)[C@@H](CC(C)C)C(=O)N[C@@H]([C@@H](C)O)C(=O)N(C)CC(=O)N1C [DP-196] (A[NMeF][NMeA][NMeL]T[Sar][NMeL]VD[NMeF]A-Piperidide; lactam N-9) |  |  | 29 | 65
17 | CC[C@H](C)[C@H]1C(=O)N[C@@H](C)C(=O)N(C)[C@@H](CC(C)C)C(=O)N[C@@H](COC(C)(C)C)C(=O)N(C)[C@@H](CC(C)C)C(=O)N[C@H](C(=O)N2CCCCC2)CC(=O)N(C)CCC(=O)N[C@@H](Cc2ccccc2)C(=O)N(C)[C@@H](Cc2ccccc2)C(=O)N(C)[C@@H](CC(C)C)C(=O)N[C@@H]([C@@H](C)O)C(=O)N(C)[C@@H](C)C(=O)N1C [DP-92] ([NMeβAla]F[NMeF][NMeL]T[NMeA][NMeI]A[NMeL]S(tBu)[NMeL]D-Piperidide; lactam N-12) |  |  | 26 | 29
18 | CC[C@H](C)[C@@H]1NC(=O)[C@H](C)N(C)C(=O)[C@H]([C@@H](C)O)NC(=O)[C@H](Cc2ccccc2)N(C)C(=O)CNC(=O)[C@H](CC(C)C)N(C)C(=O)[C@H](C(C)C)NC(=O)[C@H](CC(C)C)N(C)C(=O)[C@H](Cc2ccccc2)NC(=O)[C@H](C)N(C)C(=O)CCCN(C)C(=O)C[C@@H](C(=O)N2CCCCC2)NC1=O [DP-108] ([NMeGABA][NMeA]F[NMeL]V[NMeL]G[NMeF]T[NMeA]ID-Piperidide; lactam N-12) |  |  | 22 | 48
